Measurements published in ChEMBL document CHEMBL1201862, “PubChem BioAssay data set” (2004).
Activity calls are given as the source filed them.

Tests used:
Caspase-6 = molecular target: T1, Caspase-6 (Homo sapiens, UniProt P55212); assay: human caspase-6 inhibitors, dose response, biochemical, VEID-R110 fluorescence, cherry-pick (AID 720632)
T1 sequence (P55212 whole entry): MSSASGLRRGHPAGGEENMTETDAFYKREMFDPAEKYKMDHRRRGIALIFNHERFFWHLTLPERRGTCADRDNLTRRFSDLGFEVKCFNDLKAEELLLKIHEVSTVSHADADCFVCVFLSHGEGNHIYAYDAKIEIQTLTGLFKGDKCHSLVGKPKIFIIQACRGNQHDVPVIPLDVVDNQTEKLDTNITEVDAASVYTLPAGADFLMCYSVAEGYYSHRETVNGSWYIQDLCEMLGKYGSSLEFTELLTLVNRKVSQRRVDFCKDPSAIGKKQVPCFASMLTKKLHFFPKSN

cells [1] = assay: cells
[2] = HEp-2 cell cytotoxicity, dose response, cytotoxicity control for RSV inhibitor project, HTS (AID 2410); assay type: functional; conditions: human respiratory syncytial virus
[3] = THP-1 cell cytotoxicity, dose response, cytotoxicity control for Vif-APOBEC3G degradation inhibitor project, THP-1 cells (AID 1117359); assay type: functional; conditions: Human immunodeficiency virus 1, THP-1
[4] = molecular target: T2, Epstein-Barr nuclear antigen 1 (Epstein-Barr virus (strain B95-8) (HHV-4) (Human herpesvirus 4), UniProt P03211); assay: EBNA-1 inhibitors, dose response, biochemical, fluorescence polarization, 1536-well (AID 2381); set-up: species or system human gammaherpesvirus 4;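 also: fluorescence polarization of a Cy5 DNA probe bound by EBNA-1 protein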
T2 sequence (P03211 whole entry): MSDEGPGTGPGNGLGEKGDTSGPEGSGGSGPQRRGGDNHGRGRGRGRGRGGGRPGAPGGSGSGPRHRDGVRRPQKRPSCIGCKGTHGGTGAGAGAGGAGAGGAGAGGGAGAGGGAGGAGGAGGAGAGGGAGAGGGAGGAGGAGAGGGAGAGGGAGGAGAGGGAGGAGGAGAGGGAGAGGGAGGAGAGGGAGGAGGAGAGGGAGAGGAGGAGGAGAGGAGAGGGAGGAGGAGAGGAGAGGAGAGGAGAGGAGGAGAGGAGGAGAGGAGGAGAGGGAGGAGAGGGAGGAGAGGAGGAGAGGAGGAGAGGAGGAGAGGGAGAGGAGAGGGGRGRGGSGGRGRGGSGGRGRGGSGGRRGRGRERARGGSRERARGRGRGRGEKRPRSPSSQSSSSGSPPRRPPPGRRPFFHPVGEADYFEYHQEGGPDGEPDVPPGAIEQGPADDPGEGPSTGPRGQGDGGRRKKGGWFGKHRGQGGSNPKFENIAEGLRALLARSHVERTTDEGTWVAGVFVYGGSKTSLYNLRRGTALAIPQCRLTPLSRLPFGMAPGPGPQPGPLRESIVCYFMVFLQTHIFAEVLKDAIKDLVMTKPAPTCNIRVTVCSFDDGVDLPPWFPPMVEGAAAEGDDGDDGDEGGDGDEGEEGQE

[5] = molecular target: T3, Lytic switch protein BZLF1 (Epstein-Barr virus (strain B95-8) (HHV-4) (Human herpesvirus 4), UniProt P03206); assay: EBV ZTA inhibitors, dose response, counter-screen for EBNA-1 inhibitor project, biochemical, fluorescence polarization, Epstein-Barr virus, 1536-well (AID 2377); set-up: species or system human gammaherpesvirus 4;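 also: fluorescence polarization of Cy5-labelled ZRE DNA probe bound by purified Zta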
T3 sequence (P03206 whole entry): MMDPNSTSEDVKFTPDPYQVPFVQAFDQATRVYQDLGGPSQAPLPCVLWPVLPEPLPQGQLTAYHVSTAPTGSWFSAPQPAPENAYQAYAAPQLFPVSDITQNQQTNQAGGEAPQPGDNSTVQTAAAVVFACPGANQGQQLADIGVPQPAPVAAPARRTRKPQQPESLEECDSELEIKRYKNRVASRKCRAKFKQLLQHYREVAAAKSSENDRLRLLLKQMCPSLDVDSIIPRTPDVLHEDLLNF

[6] = P. falciparum late gametocyte killing, dose response, luminescence (AID 1117278); assay type: functional, cell-based;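 also: gametocytes exposed to compound for 24 hours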
[7] = Jurkat T cell cytotoxicity, dose response, cytotoxicity control for P. falciparum gametocyte viability project, luminescence (AID 1117277); assay type: functional, cell-based;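 also: potency reflects loss of cellular ATP meaning fewer viable cells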
[8] = molecular target: T4, Lysosomal acid glucosylceramidase (Homo sapiens, UniProt P04062); assay: Dose response cell-based high throughput screening assay to identify enhancers of beta-glucosidase activity. [Related pubchem assays: 784 ]; assay type: functional
T4 sequence (P04062 whole entry): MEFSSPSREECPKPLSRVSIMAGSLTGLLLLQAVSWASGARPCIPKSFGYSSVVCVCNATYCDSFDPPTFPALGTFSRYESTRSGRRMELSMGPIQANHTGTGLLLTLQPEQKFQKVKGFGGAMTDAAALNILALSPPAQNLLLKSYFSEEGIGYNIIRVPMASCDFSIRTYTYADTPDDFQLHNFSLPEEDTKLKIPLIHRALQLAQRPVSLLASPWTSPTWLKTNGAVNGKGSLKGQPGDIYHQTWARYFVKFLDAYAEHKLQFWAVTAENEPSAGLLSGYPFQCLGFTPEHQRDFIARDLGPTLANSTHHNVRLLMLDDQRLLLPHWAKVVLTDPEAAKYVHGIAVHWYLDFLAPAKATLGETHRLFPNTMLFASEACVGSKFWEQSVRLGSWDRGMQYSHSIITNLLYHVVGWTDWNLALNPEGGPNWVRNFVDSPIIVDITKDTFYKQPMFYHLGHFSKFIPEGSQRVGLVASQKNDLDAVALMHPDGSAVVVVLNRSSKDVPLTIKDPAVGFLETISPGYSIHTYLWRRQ

[9] = molecular target: T5, Oxysterols receptor LXR-beta (Homo sapiens, UniProt P55055); assay type: functional, cell-based;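 also: Cell-based luminescence dose-response assay of agonist activity at LXR, run as a confirmatory counterscreen to a daf-12 agonist screen; HEK293 cells with Gal4-LXR fusion and GAL4-driven luciferase reporter; agonist potency from rising luciferase signal of a Gal4-LXR reporter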
T5 sequence (P55055 whole entry): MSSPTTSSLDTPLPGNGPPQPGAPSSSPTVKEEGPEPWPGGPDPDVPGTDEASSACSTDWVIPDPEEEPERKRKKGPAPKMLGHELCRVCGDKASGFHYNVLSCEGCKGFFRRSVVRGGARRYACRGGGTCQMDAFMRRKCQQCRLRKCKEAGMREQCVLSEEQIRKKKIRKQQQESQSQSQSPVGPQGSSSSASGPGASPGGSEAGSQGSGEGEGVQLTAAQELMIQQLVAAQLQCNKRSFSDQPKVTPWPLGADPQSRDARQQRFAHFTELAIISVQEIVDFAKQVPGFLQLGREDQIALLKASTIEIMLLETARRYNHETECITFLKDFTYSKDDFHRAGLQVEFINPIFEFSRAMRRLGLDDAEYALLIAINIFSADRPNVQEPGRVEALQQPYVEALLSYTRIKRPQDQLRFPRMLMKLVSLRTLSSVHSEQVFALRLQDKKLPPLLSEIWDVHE

cells [10] = assay: cells; remark: listed apart in the source
Estrogen receptor = molecular target: T6, Estrogen receptor (Homo sapiens, UniProt P03372);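 also: potency for inhibiting coactivator peptide recruitment to the receptor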
T6 sequence (P03372 whole entry): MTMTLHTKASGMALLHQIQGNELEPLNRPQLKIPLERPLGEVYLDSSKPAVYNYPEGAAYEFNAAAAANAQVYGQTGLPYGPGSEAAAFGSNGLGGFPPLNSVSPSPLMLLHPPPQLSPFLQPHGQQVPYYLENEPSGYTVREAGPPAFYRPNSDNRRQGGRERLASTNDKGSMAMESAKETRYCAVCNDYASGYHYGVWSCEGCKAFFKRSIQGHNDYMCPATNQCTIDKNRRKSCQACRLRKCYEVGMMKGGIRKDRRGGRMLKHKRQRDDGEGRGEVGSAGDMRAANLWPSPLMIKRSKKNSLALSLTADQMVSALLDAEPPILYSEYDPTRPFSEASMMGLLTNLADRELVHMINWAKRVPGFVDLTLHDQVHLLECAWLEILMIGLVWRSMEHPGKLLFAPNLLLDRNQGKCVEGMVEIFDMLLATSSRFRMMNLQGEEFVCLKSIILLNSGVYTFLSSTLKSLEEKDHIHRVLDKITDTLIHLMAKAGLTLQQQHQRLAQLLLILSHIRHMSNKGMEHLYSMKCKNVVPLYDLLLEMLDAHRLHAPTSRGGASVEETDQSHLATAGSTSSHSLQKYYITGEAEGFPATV

[11] = molecular target: T7, Carboxy-terminal domain RNA polymerase II polypeptide A small phosphatase 1 (Homo sapiens, UniProt Q9GZU7); assay: inhibitors of CTDSP1, concentration-response testing, biochemical assay, absorbance-based, actives from ultra-high-throughput screening (AID 540297); assay type: functional
T7 sequence (Q9GZU7 whole entry): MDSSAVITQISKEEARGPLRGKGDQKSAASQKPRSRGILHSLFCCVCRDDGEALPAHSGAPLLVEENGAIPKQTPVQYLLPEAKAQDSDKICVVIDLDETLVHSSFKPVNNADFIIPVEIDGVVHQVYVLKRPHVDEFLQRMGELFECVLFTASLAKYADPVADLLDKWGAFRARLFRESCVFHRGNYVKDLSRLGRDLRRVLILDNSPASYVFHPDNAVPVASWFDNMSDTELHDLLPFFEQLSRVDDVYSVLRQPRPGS

[12] = molecular target: T8, Mannose-6-phosphate isomerase (Homo sapiens, UniProt P34949); assay: human PMI inhibitors, high substrate, primary screen, biochemical, fluorescence intensity, high mannose 6-phosphate (AID 1220)
T8 sequence (P34949 whole entry): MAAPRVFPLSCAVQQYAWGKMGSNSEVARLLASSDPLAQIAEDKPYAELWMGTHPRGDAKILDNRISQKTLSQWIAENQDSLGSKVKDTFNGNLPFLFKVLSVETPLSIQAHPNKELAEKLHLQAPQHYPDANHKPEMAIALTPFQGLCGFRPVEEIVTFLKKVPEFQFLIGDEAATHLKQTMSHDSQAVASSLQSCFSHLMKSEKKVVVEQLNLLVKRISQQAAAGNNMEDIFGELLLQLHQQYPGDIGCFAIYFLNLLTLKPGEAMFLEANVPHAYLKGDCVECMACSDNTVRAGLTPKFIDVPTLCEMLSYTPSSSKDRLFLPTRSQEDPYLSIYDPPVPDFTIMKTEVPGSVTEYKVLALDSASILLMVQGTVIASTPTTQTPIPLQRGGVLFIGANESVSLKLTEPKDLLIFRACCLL

[13] = molecular target: Mitogen-activated protein kinase 10 (Homo sapiens, UniProt P53779); assay: Dose response biochemical screening assay for inhibitors of c-Jun N-Terminal Kinase 3 (JNK3). [Related pubchem assays: 746 ]
[14] = molecular target: T9, Polyadenylate-binding protein 1 (Homo sapiens, UniProt P11940); assay: PABP1 MLLE–PAM2 interaction inhibitors, dose response, miRNA deadenylation inhibitor project, biochemical, fluorescence polarization, Cy5-PAM2 peptide, secondary (AID 602260); assay type: functional; conditions: read-out: IC50_Mean
[15] = molecular target: T9, Polyadenylate-binding protein 1; assay: PABP1 MLLE–PAM2 binding inhibitor potency, dose response, biochemical, fluorescence polarization, FITC-PAM2 peptide (AID 602259); assay type: functional; conditions: read-out: IC50_Mean

T9 sequence (P11940 whole entry): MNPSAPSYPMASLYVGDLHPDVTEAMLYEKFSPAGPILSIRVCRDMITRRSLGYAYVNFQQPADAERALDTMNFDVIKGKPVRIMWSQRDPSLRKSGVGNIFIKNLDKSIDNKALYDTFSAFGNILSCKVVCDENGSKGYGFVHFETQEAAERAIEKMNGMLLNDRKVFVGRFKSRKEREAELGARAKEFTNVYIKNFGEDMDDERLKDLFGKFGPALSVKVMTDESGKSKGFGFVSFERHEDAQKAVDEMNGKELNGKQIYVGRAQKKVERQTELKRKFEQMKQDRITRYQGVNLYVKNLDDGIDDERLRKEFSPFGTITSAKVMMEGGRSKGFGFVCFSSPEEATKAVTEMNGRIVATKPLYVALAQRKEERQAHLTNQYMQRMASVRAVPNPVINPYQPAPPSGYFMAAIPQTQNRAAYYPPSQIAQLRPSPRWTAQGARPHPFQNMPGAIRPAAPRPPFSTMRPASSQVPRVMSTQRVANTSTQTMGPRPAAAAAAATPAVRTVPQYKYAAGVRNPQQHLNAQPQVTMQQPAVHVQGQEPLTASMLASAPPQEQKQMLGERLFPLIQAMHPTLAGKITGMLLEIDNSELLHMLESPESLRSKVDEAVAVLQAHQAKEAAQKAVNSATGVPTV
Chain of Mitogen-activated protein kinase 10 (P53779 whole entry): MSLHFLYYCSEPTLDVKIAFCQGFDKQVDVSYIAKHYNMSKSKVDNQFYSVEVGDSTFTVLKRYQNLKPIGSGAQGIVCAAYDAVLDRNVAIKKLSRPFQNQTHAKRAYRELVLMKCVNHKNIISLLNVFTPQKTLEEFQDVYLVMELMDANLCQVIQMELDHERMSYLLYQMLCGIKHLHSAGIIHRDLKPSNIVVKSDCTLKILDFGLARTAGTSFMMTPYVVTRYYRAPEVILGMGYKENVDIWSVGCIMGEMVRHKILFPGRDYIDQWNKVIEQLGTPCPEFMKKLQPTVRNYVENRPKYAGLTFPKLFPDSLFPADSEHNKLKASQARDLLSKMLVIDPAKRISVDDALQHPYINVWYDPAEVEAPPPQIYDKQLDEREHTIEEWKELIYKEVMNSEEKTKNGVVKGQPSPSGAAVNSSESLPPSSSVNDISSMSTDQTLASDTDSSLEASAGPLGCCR

Structure (SMILES): Cc1nnc(NS(=O)(=O)c2ccc(N=Nc3ccc(N)nc3N)cc2)s1
- AC50 (Caspase-6): 3.23 µM (active)

Structure (SMILES): O=c1c2sccc2n(Cc2cc(=O)n3ccccc3n2)c(=O)n1-c1ccccc1
- IC50 (cells [1]): 14 µM (active)

Structure (SMILES): COc1cc2c(cc1NC(=O)Nc1ccccc1)oc1ccccc12
- CC50 [2]: 13.2 µM (active)
- IC50 (cells [1]): 30.4 µM (active)

Structure (SMILES): Cc1ccc(-n2c(SCC(=O)NCc3ccco3)nc3c4ccccc4nc-3c2O)cc1
- CC50 [3]: > 40 µM (active)

Structure (SMILES): CCOC(=O)[C@H]1[C@H]2COc3ccc(Cl)cc3[C@@H]2N2C(=O)c3ccc(Cl)cc3NC(=O)[C@@]12C
- IC50 [4]: > 148 µM (not active)
- IC50 [5]: > 111 µM (not active)

Structure (SMILES): C(=C\c1ccc([C@H]2[C@H]3CNC[C@@H]2N3Cc2ccccn2)cc1)/c1ccccc1
- AC50 (Caspase-6): 41.9 µM (active)

Structure (SMILES): Cc1cccc(Nc2nc(NCc3ccco3)nc(N3CCOCC3)n2)c1
- CC50 [2]: 36.8 µM (active)
- IC50 [6]: > 109 µM (inactive)
- IC50 [7]: > 83.3 µM (inactive)

Structure (SMILES): O=C(CCNS(=O)(=O)c1cccc2nsnc12)NC1CCN(Cc2ccccc2)CC1
- EC50 [8]: > 50 µM (not active)

Structure (SMILES): Cc1ccccc1CS(=O)(=O)Cc1ccc(C(=O)NCc2ccco2)o1
- EC50 [8]: > 50 µM (not active)

Structure (SMILES): O=C(NC(=S)Nc1ccc(Br)cn1)c1cccs1
- EC50 [9]: > 67.5 µM (inactive)
- EC50 (cells [10]): > 67.5 µM (inactive)

Structure (SMILES): CN(/N=C/c1cccnc1)c1cnn(-c2ccc(F)c(Cl)c2)c(=O)c1Cl
- IC50 (Estrogen receptor): 17.9 µM (active)
- IC50 [11]: > 80 µM (inactive)

Structure (SMILES): O=C(NCc1ccc(F)cc1)C(Cc1ccccc1)NS(=O)(=O)c1cccs1 (stereo not drawn)
- IC50 [6]: > 109 µM (inactive)
- IC50 [7]: > 83.3 µM (inactive)

Structure (SMILES): CC(C)(C)C(=O)OCc1nc(-c2ccc(O)c(O)c2)cs1
- CC50 [3]: 27.8 µM (active)

Structure (SMILES): Nc1c(C(=O)Nc2ccccc2)sc2nc(-c3ccco3)ccc12
- IC50 [4]: 6.43 µM (active)
- IC50 [5]: > 111 µM (not active)

Structure (SMILES): O=[N+]([O-])c1c(NCCO)cc(N2CCC3(CC2)OCCO3)c2nonc12
- IC50 [12]: > 50 µM (not active)

Structure (SMILES): CCN(CC)S(=O)(=O)c1ccc2nc(COC(=O)c3n[nH]c4ccccc34)[nH]c2c1
- IC50 [13]: 0.401 µM (active)

Structure (SMILES): CN(C)c1ccc(S(=O)(=O)N2CCCCC2)cc1NC(=O)COc1ccccc1F
- IC50 [6]: > 109 µM (inactive)
- IC50 [7]: > 83.3 µM (inactive)

Structure (SMILES): c1coc(-c2nn3c(Cn4nnc5ccccc54)nnc3s2)c1
- IC50 [14]: > 66 µM (inactive)
- IC50 [15]: > 66 µM (inactive)
- IC50 (cells [1]): 8.25 µM (active)

Structure (SMILES): CC(=O)Nc1nc(C=C(Cl)Cl)cs1
- IC50 (Estrogen receptor): > 50 µM (not active)

Structure (SMILES): CCOC(=O)c1ccc(-c2csc(NC(=O)CN3CCC(C)CC3)n2)cc1
- IC50 [4]: 5.32 µM (active)
- IC50 [5]: > 111 µM (not active)

Structure (SMILES): CN(C)c1cccc2c(C#N)ccc(N(C)C)c12
- IC50 [12]: > 50 µM (not active)
